According to patent publication US10550143B2, “C,O-spiro aryl glycoside compounds, preparation therefor and use thereof” (SHANGHAI INSTITUTE OF MATERIA MEDICA, CHINESE ACADEMY OF …, priority 2015, dated 2020):
One block for each compound: values may come before it.

Legend:
[1] = system: SD rats; test: Acute single administration, urinary glucose changes in SD rats; assay type: in vivo, rat; parameters: Urine glucose concentration / The total amount of glucose excreted: unit not given here; settings: 1 mg/kg oral, after 24 h
Method: (1) Acutely Administering Compound to Observed the Urinary Glucose Changes in SD Rats
Thirty-eight male normal SD rats were selected and randomly divided into 5 groups according to body weight and blood glucose, 6-8 in each group. […] After oral gavage, the rats were placed in rats metabolic cages, and urine was collected after 24 h, and the urine volume was recorded, the urine sugar concentration was determined, and urinary sugar content was calculated according to the following formula. Urine content=urinary sugar concentration×urine volume
Glucose levels in urine are measured by the glucose assay kit.
Data were expressed as mean±standard deviation (x±s), and Student's t test was used for statistical analysis of the data, p<0.05 was considered statistically significant.

[2] = system: db/db mice; test: Chronic administration, random blood glucose in db/db mice; assay type: in vivo, mouse; settings: for random blood glucose Pre: before administration; for Hypoglycemic rate % week 1 / Hypoglycemic rate % week 2 / Hypoglycemic rate % week 3 / Hypoglycemic rate % week 4: random blood glucose
Method: Oral gavage administrated, daily dose volume was 10 mL/kg, administered once daily. Administration time was 9: 00-10:00 daily, and the administration period was 5 weeks.
The random blood glucose of mice in the normal control group, model control group, test substance administration group and positive control group were determined on the 7th, 14th, 21st, 28th day (9: 00-10:00) every week after the first administration, and food was removed and after 6 hours of starvation, the fasting blood glucose in each group was measured. Free drinking during the hunger process. The rate of decrease of blood glucose was calculated according to the following formula: Average hypoglycemic rate %=(Blood glucose of model control group−Blood glucose of administration group)/Model control group×100%

[3] = target: T1, human sodium-glucose cotransporter 2 (SGLT2) (Homo sapiens, UniProt P31639); test: In vitro SGLT2 inhibition, methyl-α-D-[U-14C]glucopyranoside uptake in NIH3T3-hSGLT2 cells; assay type: cell-based; settings: for inhibition at 0.01 µM: SGLT2, 10 nM, read-out: % Inhibition rate ± SD 10 nM; for inhibition at 0.1 µM: SGLT2, 100 nM, read-out: % Inhibition rate ± SD 100 nM
T1 construct: expressed in transfected cells; host or cells: NIH3T3 (mouse fibroblast) cells expressing hSGLT2
T1 sequence (P31639 1-672): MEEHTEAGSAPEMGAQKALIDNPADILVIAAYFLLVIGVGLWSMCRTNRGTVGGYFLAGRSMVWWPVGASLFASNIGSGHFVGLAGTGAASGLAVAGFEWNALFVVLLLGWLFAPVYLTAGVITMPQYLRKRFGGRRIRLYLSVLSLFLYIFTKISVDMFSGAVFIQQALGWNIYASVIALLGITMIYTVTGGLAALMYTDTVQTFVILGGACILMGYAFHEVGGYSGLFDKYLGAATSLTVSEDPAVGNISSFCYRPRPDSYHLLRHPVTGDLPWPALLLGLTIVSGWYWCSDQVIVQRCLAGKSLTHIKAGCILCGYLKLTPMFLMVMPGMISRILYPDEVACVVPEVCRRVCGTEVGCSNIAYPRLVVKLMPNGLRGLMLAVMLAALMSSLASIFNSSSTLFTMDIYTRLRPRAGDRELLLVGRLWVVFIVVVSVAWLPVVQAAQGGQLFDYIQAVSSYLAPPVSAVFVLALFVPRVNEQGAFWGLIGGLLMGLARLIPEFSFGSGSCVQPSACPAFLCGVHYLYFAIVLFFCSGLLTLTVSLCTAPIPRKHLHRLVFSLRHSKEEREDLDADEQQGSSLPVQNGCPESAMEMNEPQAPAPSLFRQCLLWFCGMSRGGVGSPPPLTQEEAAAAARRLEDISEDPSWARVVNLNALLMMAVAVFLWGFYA
Method: Inhibition of the compounds of formula I against human sodium-glucose cotransporter 2 (SGLT2) was determined experimentally and the experimental procedures were carried out as reference^1.
Methyl-α-D-[U-^14C] glucopyranoside (Perkin Elmer) Dimethylsulfoxide (Genebase, Prod No: 0231)
(1) Primary screening of hSGLT2 are conducted with two concentrations, 100 nM and 10 nM;
SGLT2 transports D-glucose at 1:1 sodium-glucose ratio, glucose is replaced by the non-metabolic and isotope labeled methyl-aD-[U-^14C] glucopyranoside and methyl-aD-glucopyranoside, and the amount of isotope transferred into the cells was determined.
1) 0.2% gelatin in a 96-well plate was put in a 37° C. incubator for further use;
2) NIH3T3-hSGLT2 cells were injected into 96-well plates, 40000/well, and 100 μL culture medium per well:
3) the fluid was changed in the next day, and sodium butyrate was added into medium at a final concentration of 2 mM;
4) wash the cells with 100 μL of KRH—Na^+ for 3 times and incubate cells with 50 μL for 30 minutes. Cells were changed to 50 μL of compound in KRH—Na^+, uptake buffer (KRH—Na^+ and methyl-α-D-[U-^14C]glucopyranoside and ⅙ mM methyl-α-D-glucopyranoside at 10 μL per well) was added; KRH-acetylcholine solution was used as background control instead of KRH-Na^+
5) washed with 100 μL PBS for 3 times, dried, 50 μL lysate and 150 μL scintillation fluid were added, the membrane was covered and flattened, shaken on a shaker to mix thoroughly, centrifuged at 1500 rpm at 4° C. for 3 min, taken out and read;
6) the results were analyses.
The inhibition rate (% Inhibiton) of each sample at each concentration was calculated by dividing the value of the compound well value minus the background value by the value of the DMSO control well value minus the background value.
IC50 is calculated as follows: […]
The y value is the activity or inhibition percent, the x value is the concentration of the corresponding compound, top (the maximum y value of the curve), bottom (the minimum y value of the curve).

inhibition at 0.01 µM [3]: 59.6 ± 11.3%
inhibition at 0.1 µM [3]: 103 ± 2.8%
SMILES: CCOc1ccc(Cc2cc([C@@H]3O[C@H](CO)[C@@H](O)[C@H](O)[C@H]3O)ccc2Cl)cc1 [dapagliflozin, reference compound]
The total amount of glucose excreted ([1]; Table 3): 1860.61 ± 575.28
Urine glucose concentration ([1]; Table 3): 251.92 ± 52.98
Urine volume ([1]; Table 3, in mL): 40.75 ± 8.60
The total amount of glucose excreted ([1]; Table 4): 1822.21 ± 112.97
Urine glucose concentration ([1]; Table 4): 382.41 ± 35.64
Urine volume ([1]; Table 4, in mL): 26.67 ± 3.01
random blood glucose week 1 ([2]; 1 mg/kg once daily oral): 14.9 ± 0.9 mmol/L
random blood glucose week 2 ([2]; 1 mg/kg once daily oral): 14.9 ± 1.1 mmol/L
random blood glucose week 3 ([2]; 1 mg/kg once daily oral): 14.9 ± 1.0 mmol/L
random blood glucose week 4 ([2]; 1 mg/kg once daily oral): 14.4 ± 1.1 mmol/L
random blood glucose Pre ([2]; 1 mg/kg once daily oral): 19.3 ± 1.2 mmol/L
random blood glucose week 1 ([2]; 3 mg/kg once daily oral): 13.4 ± 0.8 mmol/L
random blood glucose week 2 ([2]; 3 mg/kg once daily oral): 14.1 ± 0.8 mmol/L
random blood glucose week 3 ([2]; 3 mg/kg once daily oral): 15.2 ± 1.2 mmol/L
random blood glucose week 4 ([2]; 3 mg/kg once daily oral): 11.7 ± 1.0 mmol/L
random blood glucose Pre ([2]; 3 mg/kg once daily oral): 17.5 ± 1.2 mmol/L
Hypoglycemic rate % week 1 ([2]; 1 mg/kg once daily oral): 24.0%
Hypoglycemic rate % week 2 ([2]; 1 mg/kg once daily oral): 23.6%
Hypoglycemic rate % week 3 ([2]; 1 mg/kg once daily oral): 26.4%
Hypoglycemic rate % week 4 ([2]; 1 mg/kg once daily oral): 30.5%
Hypoglycemic rate % week 1 ([2]; 3 mg/kg once daily oral): 32.0%
Hypoglycemic rate % week 2 ([2]; 3 mg/kg once daily oral): 27.7%
Hypoglycemic rate % week 3 ([2]; 3 mg/kg once daily oral): 25.4%
Hypoglycemic rate % week 4 ([2]; 3 mg/kg once daily oral): 43.8%

inhibition at 0.01 µM [3]: 46.2 ± 11.1%
inhibition at 0.1 µM [3]: 39.9 ± 10.8%
SMILES: C[C@H]1O[C@]2(OCc3cc(Cl)c(C(=O)c4ccc(C(F)(F)F)cc4)cc32)[C@H](O)[C@@H](O)[C@@H]1O [Example A111, ((1S,3′R,4′S,5′S,6′R)-5-chloro-3′,4′,5′-trihydroxy-6′-methyl-3′,4′,5′,6′-tetrahydro-3H-spiro[isobenzofuran-1,2′-pyran]-6-yl)(4-(trifluoromethyl)phenyl)ketone]

inhibition at 0.01 µM [3]: 30.1 ± 1%
inhibition at 0.1 µM [3]: 22.6 ± 8.3%
SMILES: CC(=O)c1ccc(Cc2cc3c(cc2Cl)CO[C@]32O[C@H](C)[C@@H](O)[C@H](O)[C@H]2O)s1 [Example A117, 1-(5-(((1S,3′R,4′S,5′S,6′R)-5-chloro-3′,4′,5′-trihydroxy-6′-methyl-3′,4′,5′,6′-tetrahydro-3H-spiro[isobenzofuran-1,2′-pyran]-6-yl)methyl)thiophene-2-yl)ethanone]

inhibition at 0.01 µM [3]: 20.4 ± 28.4%
inhibition at 0.1 µM [3]: 49.1 ± 20%
SMILES: C[C@H]1O[C@]2(OCc3ccc(Cc4ccc(-c5ccccc5)s4)cc32)[C@H](O)[C@@H](O)[C@@H]1O [Example A12, (1S,3′R,4′S,5′S,6′R)-6′-methyl-6-((5-phenylthienyl)-2-methyl)-3′,4′,5′,6′-tetrahydro-3H-spiro [isobenzofuran-1,2′-pyran]-3′,4′,5′-triol]

inhibition at 0.01 µM [3]: 89.4 ± 1.5%
inhibition at 0.1 µM [3]: 62.3 ± 6%
SMILES: CCCOCCc1ccc(Cc2cc3c(cc2Cl)CO[C@]32O[C@H](C)[C@@H](O)[C@H](O)[C@H]2O)s1 [Example A116, (1S,3′R,4′S,5′S,6′R)-5-chloro-6-((5-(2-propoxyethyl)thiophene-2-yl)methyl)-6′-methyl-3′,4′,5′,6′-tetrahydro-3H-spiro[isobenzofuran-1,2′-pyran]-3′,4′,5′-triol]

inhibition at 0.01 µM [3]: 19.4 ± 0.5%
inhibition at 0.1 µM [3]: 50.2 ± 10.8%
SMILES: C[C@H]1O[C@]2(OCc3cc(F)c(Cc4cc5ccccc5s4)cc32)[C@H](O)[C@@H](O)[C@@H]1O [Example A47, (1S,3′R,4′S,5′S,6′R)-6′-methyl-6-(benzo[b]thiophene-2-methyl)-5-fluoro-3,4′,5′,6′-tetrahydro-3H-spiro [isobenzofuran-1,2′-pyran]-3′,4′,5′-triol]

inhibition at 0.01 µM [3]: 20.9 ± 16.3%
inhibition at 0.1 µM [3]: 22.5 ± 10.7%
SMILES: CCc1ccc(C(=O)c2cc3c(cc2Cl)CO[C@]32O[C@H](C)[C@@H](O)[C@H](O)[C@H]2O)s1 [Example A113, ((1S,3′R,4′S,5′S,6′R)-5-chloro-3′,4′,5′-trihydroxy-6′-methyl-3′,4′,5′,6′-tetrahydro-3H-spiro[isobenzofuran-1,2′-pyran]-6-yl)(5-ethylthiophene-2-yl)ketone]

inhibition at 0.01 µM [3]: 13.1 ± 8.4%
inhibition at 0.1 µM [3]: 33.2 ± 10.1%
SMILES: C[C@H]1O[C@]2(OCc3cc(F)c(Cc4cc5ccccc5o4)cc32)[C@H](O)[C@@H](O)[C@@H]1O [Example A48, (1S,3′R,4′S,5′S,6′R)-6′-methyl-6-(benzo[b]furan-2-methyl)-5-fluoro-3′,4′,5′,6′-tetrahydro-3H-spiro[isobenzofuran-1,2′-pyran]-3′,4′,5′-triol]

inhibition at 0.01 µM [3]: 21.2 ± 14.4%
inhibition at 0.1 µM [3]: 26.9 ± 9.1%
SMILES: Cc1ccc(Cc2ccc3c(c2)[C@]2(OC3)O[C@H](C)[C@@H](O)[C@H](O)[C@H]2O)cc1 [Example A1, (1S,3′R,4′S,5′S,6′R)-6′-methyl-6-(4-methylbenzyl)-3′,4′,5′,6′-tetrahydro-3H-spiro[isobenzofuran-1,2′-pyran]-3′,4′,5′-triol]

inhibition at 0.01 µM [3]: 46.9 ± 4%
inhibition at 0.1 µM [3]: 50.8 ± 4.4%
SMILES: C[C@H]1O[C@]2(OCc3ccc(Cc4cc5ccccc5s4)cc32)[C@H](O)[C@@H](O)[C@@H]1O [Example A15, (1S,3′R,4′S,5′S,6′R)-6′-methyl-6-(benzo[b]thiophene-2-methyl)-3′,4′,5′,6′-tetrahydro-3H-spiro[isobenzofuran-1,2′-pyran]-3′,4′,5′-triol]

inhibition at 0.01 µM [3]: 86.8 ± 1.6%
inhibition at 0.1 µM [3]: 62.6 ± 7.2%
SMILES: C[C@H]1O[C@]2(OCc3cc(Cl)c(Cc4ccc(C5(C#N)CC5)s4)cc32)[C@H](O)[C@@H](O)[C@@H]1O [Example A109, 1-(5-(((1S,3′R,4′S,5′S,6′R)-5-chloro-3′,4′,5′-trihydroxy-6′-methyl-3′,4′,5′,6′-tetrahydro-3H-spiro[isobenzofuran-1,2′-pyran]-6-yl)methyl)thiophene-2-yl)cyclopropane-1-formonitrile]

inhibition at 0.01 µM [3]: 28.1 ± 25.8%
inhibition at 0.1 µM [3]: 45.8 ± 10.2%
SMILES: C[C@H]1O[C@]2(OCc3ccc(Cc4ccc(Cl)s4)cc32)[C@H](O)[C@@H](O)[C@@H]1O [Example A10, (1S,3′R,4′S,5′S,6′R)-6′-methyl-6-((5-chlorothienyl)-2-methyl)-3′,4′,5′,6′-tetrahydro-3H-spiro [isobenzofuran-1,2′-pyran]-3′,4′,5′-triol]

inhibition at 0.01 µM [3]: 34.1 ± 23.6%
inhibition at 0.1 µM [3]: 42.2 ± 3.5%
SMILES: CC(C)c1ccc(Cc2ccc3c(c2)[C@]2(OC3)O[C@H](C)[C@@H](O)[C@H](O)[C@H]2O)cc1 [Example A4, (1S,3′R,4′S,5′S,6′R)-6′-methyl-6-(4-isopropylbenzyl)-3′,4′,5′,6′-tetrahydro-3H-spiro[isobenzofuran-1,2′-pyran]-3′,4′,5′-triol]
